# Test: Carotid to femoral pulse wave velocity (cfPWV) study in patients suffering from arterial stiffness
# Type: in vivo, human
# Source text: Aging of cardiovascular system is associated with worsening of arterial cushion function resulting in higher pulse pressure (systolic-diastolic amplitude). Pulse wave velocity (PWV), i.e. velocity at which the blood pressure pulse propagates through the circulatory system, is the gold standard method for arterial stiffness quantification. It can be readily measured non-invasively in humans, is highly reproducible, and predicts future cardiovascular events and all-cause mortality independent of conventional cardiovascular risk factors.
# Pulse wave travels along the arteries at a velocity rate, which varies according to wall elasticity: the less elastic the wall, the higher the velocity of PW propagation. PWV measures the time of travel of the pressure wave over a known distance and is calculated as the distance between the two positions of the pulse transducer divided by the time delay measured between pressure upstroke at each site.
# To study the effect of rebamipide on arteries, a small study on patients suffering from arterial stiffness was performed. […] Carotid to femoral PWV (cfPWV) was measured in both groups at 0, 3, 6, 9 and 12 months.
compound,measurement,setting,value
"O=C(NC(Cc1cc(=O)[nH]c2ccccc12)C(=O)O)c1ccc(Cl)cc1 (centres unmarked) [rebamipide, 2-[(4-chlorobenzoyl)amino]-3-(2-oxo-1H-quinolin-4-yl)propanoic acid]",arterial stiffness (carotid to femoral PWV),"patients with PWV above normal for age, no atherosclerosis or hyperlipidemia, rebamipide 200 mg three times a day for 12 months vs placebo, cfPWV at 0, 3, 6, 9, 12 months",gradually decreasing
same,difference in arterial stiffness between rebamipide and placebo groups,"rebamipide 200 mg three times a day vs placebo, 12 months",reached statistical significance
